Read-outs that look alike come from different tables or passages of the source.
Columns and labels:
pigweed = assay: Test C pre-/postemergence herbicide test; format: in vivo, Amaranthus retroflexus
How it was run: (§1)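 Pre- and postemergence application, solvent/surfactant formulation; post at 1- to 4-leaf stage (2–18 cm). Greenhouse 12–14 d. Visual rating vs controls, 0 = no effect, 100 = complete control.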

goosegrass = assay: Test C pre-/postemergence herbicide test; format: in vivo, Eleusine indica
How it was run: as §1

[1] = test system: smallflower umbrella sedge; assay: Test C flooded paddy test; format: in vivo, Cyperus difformis; conditions: Cyperus difformis
barnyardgrass = assay: Test C flooded paddy test; format: in vivo, Echinochloa crus-galli; conditions: Echinochloa crus-galli
How it was run: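 Injury scored visually against controls on a 0 (no effect) to 100 (complete control) scale, 12 to 14 days after treatment in greenhouse. Flooded paddy plants treated at 2-leaf stage; postemergence plants at 1- to 4-leaf stage, 2 to 18 cm tall.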

kochia = assay: Test C pre-/postemergence herbicide test; format: in vivo, Kochia scoparia
How it was run: as §1

corn = assay: Test C pre-/postemergence herbicide test; format: in vivo, Zea mays
How it was run: as §1

velvetleaf = assay: Test A pre-/postemergence herbicide test; format: in vivo, Abutilon theophrasti; conditions: Abutilon theophrasti, 240 h; for pest or weed control at 2000 g/ha: 2000 g ai/ha, 0 to 100 scale, 0 no effect, 100 complete control
How it was run: (§2)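 Visual injury rating on a 0–100 scale (0 no effect, 100 complete control) versus untreated controls, about ten days after treatment in greenhouse. Pre: directed soil spray onto seeded sandy loam. Post: spray to runoff on plants 2–10 cm tall at one- to two-leaf stage.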

woolly cupgrass = assay: Test C pre-/postemergence herbicide test; format: in vivo, Eriochloa villosa
How it was run: as §1

Surinam grass = assay: Test C pre-/postemergence herbicide test; format: in vivo, Urochloa decumbens
How it was run: as §1

morningglory = assay: Test C pre-/postemergence herbicide test; format: in vivo, Ipomoea coccinea
How it was run: as §1

yellow nutsedge = assay: Test C pre-/postemergence herbicide test; format: in vivo, Cyperus esculentus
How it was run: as §1

lambsquarters = assay: Test C pre-/postemergence herbicide test; format: in vivo, Chenopodium album
How it was run: as §1

giant foxtail = assay: Test A pre-/postemergence herbicide test; format: in vivo, Setaria faberi; conditions: Setaria faberi, 240 h; for pest or weed control at 500 g/ha: 500 g ai/ha; for pest or weed control at 2000 g/ha: 2000 g ai/ha
How it was run: as §2

soybean = assay: Test C pre-/postemergence herbicide test; format: in vivo, Glycine max
How it was run: as §1

[2] = Preemergence, 500 g ai/ha, scale 0 to 100, 0 no effect, 100 complete control
[3] = post-emergence, Postemergence, 0 to 100 scale, 0 no effect, 100 complete control, read-out: Plant response rating, Foxtail, Giant

`CCn1nc(C(C)(C)C)cc1C(=O)Nc1cccc2c1CN(C)C2=O` [Compound 55, N-(2,3-dihydro-2-methyl-1-oxo-1H-isoindol-4-yl)-3-(1,1-dimethylethyl)-1-ethyl-1H-pyrazole-5-carboxamide] was tested, and the “Plant response rating (0 = no effect, 100 = complete control), Pigweed” value (pigweed; 62 g ai/ha, preemergence) was 95, the pest or weed control at 125 g/ha (pigweed; Amaranthus retroflexus, pre-emergence, 125 g ai/ha, scale 0 (no effect) to 100 (complete control), visual, 12 to 14 days, read-out: Plant response rating, Pigweed) was 95% and the pest or weed control at 250 g/ha (pigweed; Amaranthus retroflexus, pre-emergence, 250 g ai/ha, scale 0 to 100 (0 no effect, 100 complete control), visual, 12 to 14 days, read-out: Plant response rating, Pigweed) was 95%. For the same molecule, the “Pigweed plant response rating” value (pigweed; [2]) was 95, the “Plant response rating (0 = no effect, 100 = complete control), Goosegrass” value (goosegrass; 62 g ai/ha, preemergence) was 0 and the pest or weed control at 125 g/ha (goosegrass; Eleusine indica, pre-emergence, 312 h, 125 g ai/ha, scale 0 (no effect) to 100 (complete control), visual, 12 to 14 days, read-out: Plant response rating, Goosegrass) was 50%. The pest or weed control at 250 g/ha (goosegrass; Eleusine indica, pre-emergence, 312 h, 250 g ai/ha, scale 0 to 100 (0 no effect, 100 complete control), visual, 12 to 14 days, read-out: Plant response rating, Goosegrass) was 75%, the “Goosegrass plant response rating” value (goosegrass; [2]) was 95 and the pest or weed control at 62 g/ha ([1]; 62 g ai/ha, scale 0 to 100 (0 no effect, 100 complete control), read-out: Sedge, Umbrella plant response rating) was 0%. It also gave a pest or weed control at 125 g/ha ([1]; 125 g ai/ha, scale of 0 to 100, 0 is no effect, 100 is complete control, read-out: Sedge, Umbrella plant response rating) of 20%, a pest or weed control at 250 g/ha ([1]; 250 g ai/ha, scale of 0 to 100, 0 is no effect, 100 is complete control, read-out: Sedge, Umbrella plant response rating) of 75% and a pest or weed control at 500 g/ha ([1]; 500 g ai/ha, visual rating after 12 to 14 days, scale 0 to 100 (0 no effect, 100 complete control), read-out: Plant response rating, Sedge, Umbrella) of 80%. For the same molecule, the pest or weed control at 62 g/ha (barnyardgrass; 62 g ai/ha, scale 0 to 100 (0 no effect, 100 complete control), read-out: Barnyardgrass plant response rating) was 0%, the pest or weed control at 125 g/ha (barnyardgrass; 125 g ai/ha, scale of 0 to 100, 0 is no effect, 100 is complete control, read-out: Barnyardgrass plant response rating) was 0% and the pest or weed control at 250 g/ha (barnyardgrass; 250 g ai/ha, scale of 0 to 100, 0 is no effect, 100 is complete control, read-out: Barnyardgrass plant response rating) was 25%. For the same molecule, the pest or weed control at 500 g/ha (barnyardgrass; 500 g ai/ha, visual rating after 12 to 14 days, scale 0 to 100 (0 no effect, 100 complete control), read-out: Plant response rating, Barnyardgrass) was 75%, the “Plant response rating (0 = no effect, 100 = complete control), Kochia” value (kochia; 62 g ai/ha, preemergence) was 25 and the pest or weed control at 125 g/ha (kochia; Bassia scoparia, pre-emergence, 125 g ai/ha, scale 0 (no effect) to 100 (complete control), visual, 12 to 14 days, read-out: Plant response rating, Kochia) was 80%. The pest or weed control at 250 g/ha (kochia; Bassia scoparia, pre-emergence, 250 g ai/ha, scale 0 to 100 (0 no effect, 100 complete control), visual, 12 to 14 days, read-out: Plant response rating, Kochia) was 100%, the “Kochia plant response rating” value (kochia; [2]) was 100 and the “Plant response rating (0 = no effect, 100 = complete control), Corn” value (corn; 62 g ai/ha, preemergence) was 0. For the same molecule, the “Corn plant response rating” value (corn; [2]) was 0, the Corn plant response rating (crop injury, 0 = no effect, 100 = complete kill) at 125 g/ha (corn; Zea mays, pre-emergence, 312 h, 125 g ai/ha, scale 0 (no effect) to 100 (complete control), visual, 12 to 14 days) was 0% and the Corn plant response rating (crop injury, 0 = no effect, 100 = complete kill) at 250 g/ha (corn; Zea mays, pre-emergence, 312 h, 250 g ai/ha, scale 0 to 100 (0 no effect, 100 complete control), visual, 12 to 14 days) was 0%. It also gave a pest or weed control at 2000 g/ha (velvetleaf; post-emergence, Postemergence, read-out: Plant response rating, Velvetleaf) of 40%, a pest or weed control at 500 g/ha (velvetleaf; pre-emergence, Preemergence, 500 g ai/ha, visual rating, 0 to 100 scale (0 no effect, 100 complete control), read-out: Velvetleaf plant response rating) of 20% and a pest or weed control at 2000 g/ha (velvetleaf; pre-emergence, Preemergence, read-out: Velvetleaf plant response rating) of 70%. The “Plant response rating (0 = no effect, 100 = complete control), Cupgrass, Woolly” value (woolly cupgrass; 62 g ai/ha, preemergence) was 0, the pest or weed control at 125 g/ha (woolly cupgrass; Eriochloa villosa, pre-emergence, 312 h, 125 g ai/ha, scale 0 (no effect) to 100 (complete control), visual, 12 to 14 days, read-out: Plant response rating, Cupgrass, Woolly) was 25% and the pest or weed control at 250 g/ha (woolly cupgrass; Eriochloa villosa, pre-emergence, 312 h, 250 g ai/ha, scale 0 to 100 (0 no effect, 100 complete control), visual, 12 to 14 days, read-out: Plant response rating, Cupgrass, Woolly) was 55%. For the same molecule, the “Cupgrass, Woolly plant response rating” value (woolly cupgrass; [2]) was 65, the “Plant response rating (0 = no effect, 100 = complete control), Surinam Grass” value (Surinam grass; 62 g ai/ha, preemergence) was 0 and the “Surinam Grass plant response rating” value (Surinam grass; [2]) was 100. The pest or weed control at 125 g/ha (Surinam grass; Urochloa decumbens, pre-emergence, 312 h, 125 g ai/ha, scale 0 (no effect) to 100 (complete control), visual, 12 to 14 days, read-out: Plant response rating, Surinam Grass) was 25%, the pest or weed control at 250 g/ha (Surinam grass; Urochloa decumbens, pre-emergence, 312 h, 250 g ai/ha, scale 0 to 100 (0 no effect, 100 complete control), visual, 12 to 14 days, read-out: Plant response rating, Surinam Grass) was 65% and the “Plant response rating (0 = no effect, 100 = complete control), Morningglory” value (morningglory; 62 g ai/ha, preemergence) was 0. For the same molecule, the pest or weed control at 125 g/ha (morningglory; Ipomoea, pre-emergence, 125 g ai/ha, scale 0 (no effect) to 100 (complete control), visual, 12 to 14 days, read-out: Plant response rating, Morningglory) was 0%, the pest or weed control at 250 g/ha (morningglory; Ipomoea, pre-emergence, 250 g ai/ha, scale 0 to 100 (0 no effect, 100 complete control), visual, 12 to 14 days, read-out: Plant response rating, Morningglory) was 20% and the “Morningglory plant response rating” value (morningglory; [2]) was 75. For the same molecule, the “Plant response rating (0 = no effect, 100 = complete control), Nutsedge, Yellow” value (yellow nutsedge; 62 g ai/ha, preemergence) was 0, the pest or weed control at 125 g/ha (yellow nutsedge; Cyperus, pre-emergence, 125 g ai/ha, scale 0 (no effect) to 100 (complete control), visual, 12 to 14 days, read-out: Plant response rating, Nutsedge, Yellow) was 0% and the pest or weed control at 250 g/ha (yellow nutsedge; Cyperus, pre-emergence, 250 g ai/ha, scale 0 to 100 (0 no effect, 100 complete control), visual, 12 to 14 days, read-out: Plant response rating, Nutsedge, Yellow) was 0%. For the same molecule, the “Nutsedge, Yellow plant response rating” value (yellow nutsedge; [2]) was 10, the “Plant response rating (0 = no effect, 100 = complete control), Lambsquarters” value (lambsquarters; 62 g ai/ha, preemergence) was 80 and the pest or weed control at 125 g/ha (lambsquarters; Chenopodium album, pre-emergence, 125 g ai/ha, scale 0 (no effect) to 100 (complete control), visual, 12 to 14 days, read-out: Plant response rating, Lambsquarters) was 95%. The pest or weed control at 250 g/ha (lambsquarters; Chenopodium album, pre-emergence, 250 g ai/ha, scale 0 to 100 (0 no effect, 100 complete control), visual, 12 to 14 days, read-out: Plant response rating, Lambsquarters) was 100%, the “Lambsquarters plant response rating” value (lambsquarters; [2]) was 100 and the pest or weed control at 500 g/ha (giant foxtail; [3]) was 30%. It also gave a pest or weed control at 2000 g/ha (giant foxtail; [3]) of 80%, a pest or weed control at 500 g/ha (giant foxtail; pre-emergence, Preemergence, visual rating, 0 to 100 scale (0 no effect, 100 complete control), read-out: Foxtail, Giant plant response rating) of 60% and a pest or weed control at 2000 g/ha (giant foxtail; pre-emergence, Preemergence, 0 to 100 scale, 0 no effect, 100 complete control, read-out: Foxtail, Giant plant response rating) of 100%. For the same molecule, the “Plant response rating (0 = no effect, 100 = complete control), Soybean” value (soybean; 62 g ai/ha, preemergence) was 0, the plant injury at 125 g/ha (soybean; Glycine max, pre-emergence, 125 g ai/ha, scale 0 (no effect) to 100 (complete control), visual, 12 to 14 days, read-out: Plant response rating, Soybean) was 0% and the plant injury at 250 g/ha (soybean; Glycine max, pre-emergence, 250 g ai/ha, scale 0 to 100 (0 no effect, 100 complete control), visual, 12 to 14 days, read-out: Plant response rating, Soybean) was 0%. For the same molecule, the “Soybean plant response rating” value (soybean; [2]) was 20.
